Experimental data published in patent publication US20220170081A1, “METHOD FOR DETECTING TARGET NUCLEIC ACID AND KIT” (CANON KABUSHIKI KAISHA, priority 2020, published 2022).

Assays:
[1] = pH of binding buffer when amino compounds were added; type: physicochemical; settings: FIG. 11
Experimental: Change in the pH when the concentration of each of spermidine·3HCl, spermine, and 1,3-diaminopropane added to binding buffer was changed was evaluated. Binding buffer was used for a reaction buffer.

EnGen Lba Cas12a (Cpf1) = experiment: Experiment of cleavage activity of Cas12a (trans-cleavage of fluorescent reporter molecule); type: biochemical; settings: for rising of fluorescence compared with no addition: addition concentration 12 mM; for addition concentration at which an effect of facilitating the reaction was observed: concentration changed between 0 to 12 mM, FIGS. 4A to 4E
Experimental: (§1) Thereafter, in a 96-well plate (137101, Thermo Fisher Scientific), binding buffer, various additives, a reporter molecule, and water were added, the total volume was adjusted to 80 μL, and the fluorescence intensity was measured every 2 min at 37° C. for 1 to 2 hours by using a fluorescent plate reader Synergy MX (BioTec). Regarding the measurement wavelength, for HiLyte488, an excitation wavelength of 485±20 nm and a fluorescence wavelength of 528±20 nm were used. For the IDT reporter, an excitation wavelength of 535±20 nm and a fluorescence wavelength of 595±20 nm were used. For a reporter marked with Cy5 or Alexa Fluor 647, an excitation wavelength of 620±20 nm and a fluorescence wavelength of 680±20 nm were used.
FIGS. 1A and 1B illustrate a change over time in the ratio of the fluorescence intensity of the IDT reporter to the fluorescence intensity of an internal standard dye Hilyte488.

[2] = biological target: Alt-R A.s. Cas12a (Cpf1) Nuclease V3 (Acidaminococcus sp., UniProt U2UMQ6); settings: spermine 2.0 mM; NEBuffer 2.1; various concentrations of Tween 20 and BSA; FIG. 2A
Experimental: as §1, with “A ternary complex was formed by mixing 400-nM Cas12a, 500-nM crRNA, and a predetermined concentration of target DNA at a volume ratio of 1:1:2 and performing incubation at 37° C. for 30 to 60 minutes. Thereafter,” for “Thereafter,”

[3] = biological target: Alt-R A.s. Cas12a (Cpf1) Ultra (Acidaminococcus sp., UniProt U2UMQ6, F870L/M537R); settings: spermine 2.0 mM; NEBuffer 2.1; various concentrations of Tween 20 and BSA; FIG. 2B
Experimental: as §1, with “A ternary complex was formed by mixing 400-nM Cas12a, 500-nM crRNA, and a predetermined concentration of target DNA at a volume ratio of 1:1:2 and performing incubation at 37° C. for 30 to 60 minutes. Thereafter,” for “Thereafter,”

NCCCN [1,3-diaminopropane]
change in the pH of binding buffer with addition concentration [1]: the pH increased with increasing the addition concentration

NCCCCNCCCN [spermidine]
rising of fluorescence compared with no addition (EnGen Lba Cas12a (Cpf1)): the rising of fluorescence equivalent to that in the instance of no addition | addition concentration at which an effect of facilitating the reaction was observed (EnGen Lba Cas12a (Cpf1)): ≥ 0.2 mM

NCCCNCCCCNCCCN [spermine]
effect of amino compound on cleavage reaction [2]: the reaction was facilitated | effect of amino compound on cleavage reaction [3]: the reaction was facilitated | effect of amino compound on cleavage reaction of Cas12a (ratio of IDT reporter fluorescence to Hilyte488) (EnGen Lba Cas12a (Cpf1); 2.0 mM, binding buffer and NEBuffer 2.1, 0.5% Tween 20 + 0.3% BSA or 1.5% Tween + 0.6% BSA, 1 nM target DNA): facilitated the reaction | effect on cleavage reaction with respect to ten types of reporter molecules (EnGen Lba Cas12a (Cpf1); 2.0 mM, binding buffer, all reporter molecules of Table 1, FIG. 3B): the effect of facilitating the reaction by addition of the amino compound was ascertained | effect of facilitating the reaction (EnGen Lba Cas12a (Cpf1); 7.8 mM (FIG. 5A) or 1.4 mM (FIGS. 5B and 5C), binding buffer, IDT reporter): a high effect of facilitating the reaction | rising of fluorescence compared with no addition (EnGen Lba Cas12a (Cpf1)): the rising of fluorescence was reduced compared with the instance of no addition | addition concentration at which an effect of facilitating the reaction was observed (EnGen Lba Cas12a (Cpf1)): ≤ 7.8 mM | cleavage activity against the reporter molecule depending on timing of addition of amino compound (EnGen Lba Cas12a (Cpf1); final 2.0 mM, conditions 1 to 6, binding buffer, FIGS. 9A to 9C): higher under condition 2, condition 4, and condition 6 | effect of amino compound on cleavage reaction (EnGen Lba Cas12a (Cpf1); spermine 2.0 mM, NEBuffer 2.1, various concentrations of Tween 20 and BSA, FIG. 2C): the reaction was facilitated | change in the pH of binding buffer with addition concentration [1]: the pH increased with increasing the addition concentration

Cl.Cl.Cl.NCCCCNCCCN [spermidine·3HCl, spermidine trihydrochloride]
change in the pH of binding buffer with addition concentration [1]: the pH hardly changed
